The text below walks through data of US20120015961A1, “ISOTHIOUREA DERIVATIVES OR ISOUREA DERIVATIVES HAVING BACE1 INHIBITORY ACTIVITY” (SHIONOGI & CO., LTD., priority 2009, published 2012).

What is called IC50 is the concentration at which inhibition is half-maximal. The term inhibition denotes the relative decrease from the control value, in per cent. One may read the solubility as how much of the substance goes into solution per volume. Higher therefore signals a readily soluble substance.

Structures are written as SMILES.

The test system of data set [1] is Neuroblastoma SH-SY5Y cells (SH/APPwt) with human wild-type β-APP excessively expressed. As to the kind of experiment: Measurement of β-amyloid (Aβ) production inhibitory effect in cell. The format is cell-based. The settings on record: Homo sapiens, SH-SY5Y, 24 h, amount needed to inhibit Aβ production by 50%, 24 hours incubation, Amyloid β1-40 HTRF. The protocol: Neuroblastoma SH-SY5Y cells (SH/APPwt) with human wild-type β-APP excessively expressed therein were prepared at 8×10^5 cells/mL, and 150 μl portions thereof were inoculated into each well of a 96-well culture plate (Falcon). The cells were cultured for 2 hours at 37° C. in a 5% gaseous carbon dioxide incubator. Then, a solution which had been preliminarily prepared by adding and suspending the test compound (DMSO (dimethyl sulfoxide) solution) so as to be 2 μl/50 μl medium was added to the cell sap. Namely, the final DMSO concentration was 1%, and the amount of the cell culture was 200 μl. After the incubation was performed for 24 hours from the addition of the test compound, 100 μl of the culture supernatant was collected from each fraction. The amount of the Aβ in each fraction was measured.
The […] was measured as follows. 10 μl of a homogeneous time resolved fluorescence (HTRF) measurement reagent (Amyloid β1-40 peptide; IBA Molecular Holding, S.A.) and 10 μl of the culture supernatant were put into a 384-well half area microplate (black microplate, Costar) and mixed with each other, and then left standing overnight at 4° C. while the light was shielded. Then, the fluorescence intensity (excitation wavelength: 337 nm, measurement wavelength: 620 nm and 665 nm) was measured with a Wallac 1420 multilabel counter (Perkin Elmer life sciences). The Aβ amount was determined from the count rate at each measurement wavelength (10000×Count 665/Count 620), and the amount needed to inhibit Aβ production by 50% (IC50) was calculated from at least six different dosages.
(Time-resolved FRET reads energy transfer from a long-lived donor to a nearby acceptor.)

Data set [2] has as its target CYP3A4 (Homo sapiens, UniProt P08684). Put plainly: CYP3A4 fluorescent MBI test. The data set is classed as in vitro ADME. Details: host or cells: E. coli. The settings on record: (IC50 without pre reaction) − (IC50 with pre reaction), pre-reaction 0 or 30 minutes. On the procedure: The CYP3A4 fluorescent MBI test is a test to examine enhancement of CYP3A4 inhibition by metabolic reaction of the compound. Here, E. coli-expressing CYP3A4 was used as an enzyme, and a reaction wherein 7-benzyloxy trifluoromethylcumarin (BFC) was debenzylated by the CYP3A4 enzyme into a fluorescent metabolite 7-hydroxytrifluoromethylcumarin (HFC) was employed as an indicator reaction. The reaction conditions were as follows.
Substrate: 5.6 μM/L 7-BFC
Pre-reaction time: 0 or 30 minutes
Reaction time: 15 minutes
Reaction temperature: 25° C. (room temperature)
CYP3A4 content (E. coli-expressing enzyme): 62.5 pmol/mL at pre-reaction, 6.25 pmol/mL at reaction (10-fold diluted)
Test compound concentration: 0.625, 1.25, 2.5, 5, 10, and 20 μM (six different concentrations).
The enzyme and a test compound solution were added to a K-Pi buffer (pH 7.4) in the aforementioned amounts for the pre-reaction so that a pre-reaction solution was prepared, and this solution was put into a 96-well microplate. Part of this solution was transferred to another 96-well microplate such that it was diluted with the substrate and the K-Pi buffer to get a 10-fold diluted solution. NADPH, which is a coenzyme, was added so as to trigger the indicator reaction (without pre-reaction). As the reaction proceeded for a predetermined time period, acetonitrile/0.5 M Tris (tris hydroxyaminomethane)=4/1 was added to terminate the reaction. NADPH was also added to the residual pre-reaction solution so as to trigger the pre-reaction (with pre-reaction). As the pre-reaction proceeded for a predetermined time period, part of the solution was transferred to another microplate so that the solution was diluted with the substrate and the K-Pi buffer to get a 10-fold diluted solution, and then the indicator reaction was triggered. As the reaction proceeded for a predetermined time period, acetonitrile/0.5 M Tris (tris hydroxyaminomethane)=4/1 was added so as to terminate the reaction. With respect to each of the microplates on which the indicator reaction was performed, the fluorescence value of the metabolite 7-HFC was measured with a fluorescence plate reader (Ex=420 nm, Em=535 nm).
Control (100%) was prepared by adding only DMSO, which was used as a solvent to dissolve the drug, to the reaction system. The remaining activity (%) at each concentration after adding the test compound solution was calculated, and the IC50 values of without pre reaction and with pre reaction were calculated by the formula: y=A+((B−A)/(1+((C/x)^D))) using XLfit. The IC50 shift value was calculated by the formula: (the IC50 value of without pre reaction)−(the IC50 value of with pre reaction).

In data set [3] the target is T1, hERG channel (Homo sapiens, UniProt Q12809).
T1 construct: expressed in transfected cells; host or cells: HEK293
T1 sequence (Q12809 whole entry): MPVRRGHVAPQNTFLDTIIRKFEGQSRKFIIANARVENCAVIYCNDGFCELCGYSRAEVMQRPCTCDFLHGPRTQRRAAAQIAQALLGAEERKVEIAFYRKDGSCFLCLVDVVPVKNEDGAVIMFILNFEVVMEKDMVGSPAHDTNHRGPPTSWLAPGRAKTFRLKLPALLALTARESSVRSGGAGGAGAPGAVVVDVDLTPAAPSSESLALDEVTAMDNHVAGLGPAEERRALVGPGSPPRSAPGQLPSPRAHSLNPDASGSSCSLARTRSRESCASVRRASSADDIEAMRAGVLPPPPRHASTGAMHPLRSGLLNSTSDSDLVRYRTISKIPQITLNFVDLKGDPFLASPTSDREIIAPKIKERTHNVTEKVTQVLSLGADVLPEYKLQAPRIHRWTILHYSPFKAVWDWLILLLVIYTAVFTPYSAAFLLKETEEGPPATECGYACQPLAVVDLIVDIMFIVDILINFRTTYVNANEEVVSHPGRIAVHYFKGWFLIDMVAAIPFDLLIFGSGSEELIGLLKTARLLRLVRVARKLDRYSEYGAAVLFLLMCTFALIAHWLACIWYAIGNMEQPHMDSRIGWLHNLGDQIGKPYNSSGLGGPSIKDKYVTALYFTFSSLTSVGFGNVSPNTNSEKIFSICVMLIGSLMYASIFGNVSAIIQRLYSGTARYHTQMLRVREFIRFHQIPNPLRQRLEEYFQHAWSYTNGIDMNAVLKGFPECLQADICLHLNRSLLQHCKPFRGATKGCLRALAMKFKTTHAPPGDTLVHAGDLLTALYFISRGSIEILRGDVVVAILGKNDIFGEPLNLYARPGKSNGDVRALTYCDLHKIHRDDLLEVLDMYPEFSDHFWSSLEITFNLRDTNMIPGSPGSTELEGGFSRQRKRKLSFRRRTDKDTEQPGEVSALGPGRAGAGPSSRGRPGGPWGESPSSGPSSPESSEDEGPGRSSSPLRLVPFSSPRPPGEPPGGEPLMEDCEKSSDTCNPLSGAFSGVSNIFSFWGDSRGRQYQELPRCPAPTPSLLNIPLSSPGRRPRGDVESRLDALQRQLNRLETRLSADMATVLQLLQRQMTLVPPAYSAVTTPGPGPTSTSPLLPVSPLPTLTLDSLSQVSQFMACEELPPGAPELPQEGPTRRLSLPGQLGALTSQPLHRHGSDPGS
As to the kind of experiment: hERG test (whole-cell patch clamp). The format is cell-based. The settings on record: HEK293 cells that express hERG, 5 μM test compound for 7 minutes, peak tail current, read-out: Inhibition Rate (%). The protocol: As risk assessment for QT prolongation in vitro, the action on delayed rectifier potassium current was studied using a HEK293 cell with a human delayed potassium ether-a-go-go related gene (hERG) channel expressed therein.
A cell was maintained at a membrane potential of −80 mV, then +50 mV of a depolarizing stimulus (2 seconds) was applied to the cell, further −50 mV of a repolarizing stimulus (2 seconds) was applied thereto and the induced peak tail current was measured by a whole-cell patch clamp technique. 5 μM of the test compounds was applied to the cells for 7 minutes, the inhibition rate before application of the test compound was calculated, and it was compared to the rate of vehicle group (0.5% dimethylsulfoxide solution).
Background: The hERG channel carries a current that helps repolarise heart muscle cells.

Data set [4] addresses T2, Recombinant human BACE1 (Homo sapiens, UniProt P56817).
T2 construct: purchased R&D Systems
As to the kind of experiment: Assay of BACE1 inhibiting activity. The data set is classed as biochemical. Particulars: 50% inhibitory concentration against enzymatic activity, pH 5.0, 30° C., 3 hours. The protocol:
48.5 μL of substrate peptide solution (Biotin-XSEVNLDAEFRHDSGC-Eu: Xεε-amino-n-capronic acid, Eu=Europium cryptate) was added to each well of 96-hole half-area plate (a black plate: Costar Corporation), and after addition of 0.5 μl of the test compound (dissolved in […]) and 1 μl of Recombinant human BACE1 (R&D Systems), the reaction mixture was incubated at 30° C. for 3 hours. The substrate peptide was synthesized by reacting Cryptate TBPCOOH mono SMP (CIS bio international) with Biotin-XSEVNLDAEFRHDSGC (Peptide Institute, Inc.). The final concentrations of the substrate peptide and Recombinant human BACE1 were adjusted to 18 nM and 7.4 nM respectively, and the reaction was performed in sodium acetate buffer (50 mM sodium acetate, pH 5.0, 0.008% Triton X-100). After the completion of reaction, 50 μl of 8.0 μg/ml Streptavidin-XL665 (CIS bio international) dissolved in phosphate buffer (150 mM K2HPO4—KH2PO4, pH 7.0, 0.008% Triton X-100, 0.8 M KF) was added to each well and left stand at 30° C. for an hour. Then, fluorescence intensity was measured (excitation wavelength: 320 nm, measuring wavelength: 620 nm and 665 nm) using Wallac 1420 multilabel counter (Perkin Elmer life sciences). Enzymatic activity was determined from counting ratio of each wavelength (10,000×Count 665/Count 620) and 50% inhibitory concentration against the enzymatic activity was calculated.

Data set [5] can be described thus: Solubility test. The data set is classed as physicochemical. Particulars: JP-I medium with 2% DMSO, pH 1.2, simulated gastric fluid, kinetic from dmso stock, turbidity after 4 hours. On the procedure:
A 2-fold dilution series (12 points) of a 10 mM solution of a test compound in DMSO was added to a medium (JP-I, JP-II) (2%), and solubility was assessed by 3 stages (High; >40 μM, Medium; 3-40 μM, Low; <3 μM) from a turbidity after 4 hours (crystallization information).

Chain of CYP3A4 (P08684 whole entry): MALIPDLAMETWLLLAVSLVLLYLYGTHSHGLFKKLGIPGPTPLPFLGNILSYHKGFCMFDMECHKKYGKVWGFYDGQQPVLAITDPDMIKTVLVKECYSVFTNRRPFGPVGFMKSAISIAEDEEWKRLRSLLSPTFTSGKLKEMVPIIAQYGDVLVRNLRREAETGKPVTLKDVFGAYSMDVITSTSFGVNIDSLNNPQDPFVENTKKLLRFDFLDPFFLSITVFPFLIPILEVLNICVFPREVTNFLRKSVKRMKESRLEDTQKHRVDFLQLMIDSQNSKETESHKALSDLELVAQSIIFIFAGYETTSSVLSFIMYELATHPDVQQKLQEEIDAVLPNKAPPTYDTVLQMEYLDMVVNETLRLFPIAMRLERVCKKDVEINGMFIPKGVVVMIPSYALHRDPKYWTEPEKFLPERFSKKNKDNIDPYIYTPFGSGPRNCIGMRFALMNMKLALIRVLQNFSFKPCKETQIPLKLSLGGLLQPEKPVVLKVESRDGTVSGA
T2 sequence (P56817 46-501): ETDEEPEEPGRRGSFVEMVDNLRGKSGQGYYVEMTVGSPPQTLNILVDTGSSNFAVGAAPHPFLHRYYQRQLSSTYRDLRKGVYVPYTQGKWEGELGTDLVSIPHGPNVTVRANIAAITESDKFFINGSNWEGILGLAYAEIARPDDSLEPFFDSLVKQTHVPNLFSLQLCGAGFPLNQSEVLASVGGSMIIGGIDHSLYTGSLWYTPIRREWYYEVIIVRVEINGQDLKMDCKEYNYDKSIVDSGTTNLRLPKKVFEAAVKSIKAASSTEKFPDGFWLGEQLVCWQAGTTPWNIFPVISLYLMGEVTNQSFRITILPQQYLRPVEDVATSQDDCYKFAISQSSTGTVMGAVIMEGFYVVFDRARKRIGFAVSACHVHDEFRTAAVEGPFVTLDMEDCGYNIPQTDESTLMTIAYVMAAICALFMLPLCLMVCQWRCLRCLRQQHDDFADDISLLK

`CS/C(N)=N\C1(c2cc(NC(=O)c3ccc(C#N)cn3)ccc2F)CC1` [Compound 1]: the IC50 was found to be 0.055 µM in data set [1] and 3.67 µM in data set [4]. Besides, in data set [2], the “IC50 shift” value was determined as 0 µM. Further, the inhibition at 7 min, 5 µM in data set [3] amounted to 63.8%.
On to `CS/C(N)=N\Cc1cc(NC(=O)c2ccc(C#N)cn2)ccc1F` [Compound 2], for which the IC50 in data set [1] turned out to be 0.1 µM. Besides, in data set [2], the “IC50 shift” value stood at 0 µM.
On to `CC#CCOc1cnc(C(=O)Nc2cccc(C/N=C(/N)SC)c2)cn1` [Compound 3], for which the IC50 in data set [1] is 0.005 µM; in data set [4], 0.13 µM. Moreover, the “IC50 shift” value in data set [2] is 0 µM. For the same compound, the inhibition at 7 min, 5 µM in data set [3] turned out to be 67.6%.
Turning to `CC#CCOc1cnc(C(=O)Nc2cccc(C/N=C(/N)SCc3ccccc3)c2)cn1` [Compound 4], the IC50 is 0.119 µM in data set [1] and ≤ 1 µM in data set [4]. In addition, the “IC50 shift” value in data set [2] amounted to 1 µM.
The corresponding values for `C=CCS/C(N)=N\Cc1cccc(NC(=O)c2cnc(OCC#CC)cn2)c1` [Compound 5] are 0.16 µM, ≤ 1 µM and -2 µM.
On the same counts, the results for `CC#CCOc1cnc(C(=O)Nc2cccc(C/N=C(/N)SCCc3ccccc3)c2)cn1` [Compound 6] are 0.172 µM, ≤ 1 µM and -2 µM.
With `CC#CCOc1cnc(C(=O)Nc2cccc(C/N=C(/N)SCC)c2)cn1` [Compound 7], the figures for the IC50 in data set [1] and in data set [4] were 0.082 µM and 1.21 µM, respectively. The “IC50 shift” value in data set [2] was <-2 µM.
With `CC#CCOc1cnc(C(=O)Nc2cccc(C/N=C(/N)SCCC)c2)cn1` [Compound 8], the IC50 in data set [1] was 0.04 µM; in data set [4], ≤ 1 µM. Also, in data set [2], the “IC50 shift” value is -4 µM.
Consider `CC#CCOc1cnc(C(=O)Nc2cccc(C/N=C(/N)SCCCC)c2)cn1` [Compound 9], for which the IC50 in data set [1] is 0.061 µM; in data set [4] it was ≤ 1 µM. In data set [2], the “IC50 shift” value is -5 µM.
The corresponding values for `CC#CCOc1cnc(C(=O)Nc2cccc(C/N=C(/N)SCc3ccccn3)c2)cn1.O=CO` [Compound 11] are 0.524 µM, 0.29 µM and -2 µM.
Regarding `CC#CCOc1cnc(C(=O)Nc2cccc(C/N=C(/N)SCc3ccncc3)c2)cn1.O=CO` [Compound 12], the IC50 worked out at 0.036 µM in data set [1] and 0.27 µM in data set [4]. Moreover, the “IC50 shift” value in data set [2] is <-2 µM.
For `CC#CCOc1cnc(C(=O)Nc2ccc(F)c(C3(/N=C(/N)SC)CC3)c2)cn1` [Compound 15], the IC50 in data set [1] amounted to 0.004 µM; in data set [4], 0.14 µM. Also, the “IC50 shift” value in data set [2] is <-3 µM. The inhibition at 7 min, 5 µM in data set [3] was 31.5%.
Take `CS/C(N)=N\Cc1cccc(NC(=O)c2cnc(C)cn2)c1` [Compound 18]: the “IC50 shift” value in data set [2] is 0 µM. For the same compound, the inhibition at 7 min, 5 µM in data set [3] was determined as 10.8%.
In the case of `CS/C(N)=N\c1cccc2ccc(NC(=O)c3ccc(C#N)cn3)cc12` [Compound 28], the solubility at 4 h in data set [5] is > 40 µM. The IC50 is 0.193 µM in data set [1] and 0.79 µM in data set [4]. Also, the “IC50 shift” value in data set [2] is 1 µM. In addition, the inhibition at 7 min, 5 µM in data set [3] was 60.4%.
`CS/C(N)=N\C1(c2cccc(NC(=O)c3cnc(C)cn3)c2)CCCC1` [Compound 30]: the “IC50 shift” value in data set [2] is 0 µM. Besides, the inhibition at 7 min, 5 µM in data set [3] was 14.1%.
With `CS/C(N)=N\C1(c2cccc(NC(=O)c3ccc(C#N)cn3)c2)CCCC1` [Compound 31], the solubility at 4 h in data set [5] was > 40 µM. The IC50 in data set [1] is ≤ 1 µM.
Regarding `CS/C(N)=N/C1CCc2ccc(NC(=O)c3ccc(C#N)cn3)cc21` (stereo not shown) [Compound 32], in data set [1], half-maximal inhibition (IC50) was put at 0.26 µM. Further, the “IC50 shift” value in data set [2] came to 0 µM.
With `CN(C)CCCO/C(N)=N/Cc1cccc(NC(=O)c2ccc(C#N)cn2)c1` [Compound 38], the IC50 in data set [1] was ≤ 1 µM. Moreover, in data set [3], the inhibition at 7 min, 5 µM came to 8.4%.
On to `CO/C(N)=N\Cc1cc(NC(=O)c2cnc(C)cn2)ccc1F` [Compound 40], for which, in data set [5], the solubility at 4 h was > 40 µM. In addition, in data set [1], the IC50 is ≤ 1 µM.
For the compound `CO/C(N)=N\C1(c2cccc(NC(=O)c3cnc(OC)cn3)c2)CC1` [Compound 45], in data set [5], the solubility at 4 h was > 40 µM. In addition, the IC50 in data set [1] is 0.028 µM. Further, the inhibition at 7 min, 5 µM in data set [3] turned out to be 2.5%.
